Measurements from patent publication US9273092B2, “Selective binding compounds” (RIOGIN Corporation, priority 2011, dated 2016).

Biological target: hSA (Homo sapiens, UniProt P02768)
Test: hSA binding assay (hSA-coated microtiter plate, streptavidin-polyHRP/ABTS, OD 405 nm)
Conditions: for Bmax: given only for compounds with an Exp 2 value
Description: hSA binding assay. Microtiter 96 well plate is coated, overnight at 4° C., using […] of a solution of hSA in PBS ([…]). Plate is washed with PBS and blocked, for 1 hours, using 150 ml, per well, of a 10% solution of Tween 20 in water. After 1 hour the wells are washed with PBS. The hSA binders tested are dissolved in PBS, 100 ml of the tested solutions are then added in the well and incubated for 2 hours. After 2 hours, the solution are discarded and the wells are washed using PBS, 0.1% Tween 20. 100 ml of a solution of streptavidin-polyHRP in PBS 1.375% casein is added to the wells and incubated for 1 more hours. Finally wells are washed with PBS, 0.1% Tween 20, and 100 ml ABTS in phosphate-citrate buffer with sodium perborate is added. After a few minutes OD are read at 405 nm.
A plurality of compounds according to the invention were prepared. All of the compounds contained the Cys-Pro-Cys moiety. These compounds and an assay control were tested using the above procedure. Some compounds were tested twice (Exp 1 and Exp 2).

Chain of hSA (P02768 25-609): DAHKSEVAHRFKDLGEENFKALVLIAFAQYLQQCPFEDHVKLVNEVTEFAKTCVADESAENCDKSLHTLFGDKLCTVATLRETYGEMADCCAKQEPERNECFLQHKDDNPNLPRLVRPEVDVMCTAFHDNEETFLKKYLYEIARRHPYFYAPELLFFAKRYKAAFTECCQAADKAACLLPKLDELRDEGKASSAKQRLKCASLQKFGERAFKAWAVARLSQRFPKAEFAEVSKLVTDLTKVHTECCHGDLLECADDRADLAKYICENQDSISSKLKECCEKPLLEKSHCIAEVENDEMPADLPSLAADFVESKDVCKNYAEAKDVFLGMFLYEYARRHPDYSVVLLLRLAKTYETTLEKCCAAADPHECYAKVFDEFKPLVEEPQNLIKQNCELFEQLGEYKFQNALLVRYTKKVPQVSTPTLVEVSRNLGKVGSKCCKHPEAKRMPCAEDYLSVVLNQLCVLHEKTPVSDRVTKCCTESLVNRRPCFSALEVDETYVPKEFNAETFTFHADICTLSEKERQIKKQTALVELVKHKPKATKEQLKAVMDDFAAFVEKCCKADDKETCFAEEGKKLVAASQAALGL

Sequence | Binding, Exp 1 | Binding, Exp 2 | Bmax
KFIEDICPCLW [Compound 13, KFIEDI-LW, "-" represents cysteine-proline-cysteine] | 0.04979 | 0.4961 | 1.198
KLLEDICPCLW [Compound 9, KLLEDI-LW, "-" represents cysteine-proline-cysteine] | 0.04197 | – | –
RLIVDICPCLW [Compound 12, RLIVDI-LW, "-" represents cysteine-proline-cysteine] | 0.04895 | 0.2036 | 1.002
KLIEEICPCLW [Compound 28, KLIEEI-LW, "-" represents cysteine-proline-cysteine] | 0.09642 | – | –
KLIEDECPCLW [Compound 11, KLIEDE-LW, "-" represents cysteine-proline-cysteine] | 0.04808 | – | –
RLIDDICPCLW [Compound 6, RLIDDI-LW, "-" represents cysteine-proline-cysteine] | 0.03897 | 0.2179 | 1.256

Further lines, results first:

Binding, Exp 1 | Binding, Exp 2 | Bmax | Sequence
0.5209 | – | – | KLIEDQCPCLW [Compound 55, KLIEDQ-LW, "-" represents cysteine-proline-cysteine]
– | 0.2479 | 0.8746 | REIEDICPCLW [Compound 96, REIEDI-LW, "-" represents cysteine-proline-cysteine]
5.789 | – | – | RLIEDICPCLQ [Compound 65, RLIEDI-LQ, "-" represents cysteine-proline-cysteine]
0.1033 | – | – | KLQEDICPCLW [Compound 31, KLQEDI-LW, "-" represents cysteine-proline-cysteine]
0.2855 | 0.3359 | 1.14 | RLIEDICPCLW [Compound 50, RLIEDI-LW, "-" represents cysteine-proline-cysteine]
0.5311 | – | – | KLIEDVCPCLW [Compound 56, KLIEDV-LW, "-" represents cysteine-proline-cysteine]
0.1237 | – | – | KLIDDICPCLW [Compound 34, KLIDDI-LW, "-" represents cysteine-proline-cysteine]
0.1327 | – | – | KLIEDICPCTW [Compound 35, KLIEDI-TW, "-" represents cysteine-proline-cysteine]
